Assay results from patent US12441707B2, “Indazole compounds” (TYRA BIOSCIENCES, INC., priority 2019, dated 2025).
pIC50, pKd: −log10 of the molar value. Where two headings read alike, the source gives them in different places.

Columns and labels:
[1] = target: T1, FGFR2 (Homo sapiens (Human), UniProt P21802); test: biochemical
Method: (§3) Kinase-tagged T7 phage strains were prepared in an E. coli host derived from the BL21 strain. E. coli were grown to log-phase and infected with T7 phage and incubated with shaking at 32° C. until lysis. The lysates were centrifuged and filtered to remove cell debris. […] The liganded beads were blocked with excess biotin and washed with blocking buffer SeaBlock (Pierce), 1% BSA, 0.05% Tween 20, 1 mM DTT to remove unbound ligand and to reduce non-specific binding.
(§4) Test compounds were prepared as 111× stocks in 100% DMSO. Kds were determined using an 11-point 3-fold compound dilution series with three DMSO control points. […] The compounds were then diluted directly into the assays such that the final concentration of DMSO was 0.9%. All reactions performed in polypropylene 384-well plate. Each was a final volume of 0.02 ml. […] The kinase concentration in the eluates was measured by qPCR.
(§5) Binding constants were calculated with a standard dose-response curve using the Hill equation:
(§6) The Hill Slope was set to −1. Curves were fitted using a non-linear least square fit with the Levenberg-Marquardt algorithm.

[2] = target: FGFR1 (Homo sapiens (Human), UniProt P11362); test: Kinase binding assay (kinase-tagged T7 phage, liganded affinity beads, qPCR); conditions: binding constant; 0.9% DMSO
Method: as §3, §4, §5, §6

[3] = target: FGFR3 (Homo sapiens (Human), UniProt P22607); test: as above; conditions: binding constant; 0.9% DMSO
Method: as §3, §4, §5, §6

[4] = tested on: RT112/84 cells (Bladder Cancer, FGFR3-TACC3 fusion); test: RT112/84 cell viability assay (CellTiter-Glo 2.0); format: cell-based; conditions: Homo sapiens, 72 hours
Text: Example B. RT112/84 Cell Viability Assay
RT112/84 cell line was purchased from American Type Culture Collection (Manassas, VA).
(§1) Experimental Purpose: To detect the change of intracellular ATP by Cell Titer-Glo® and to evaluate the inhibitory effect of the compounds on cancer cell lines by determining the in vitro IC50 value of the compounds.
(§2) RT112/84 and KG-1 cell lines were purchased from American Type Culture Collection (Manassas, VA). UM-UC-14 cell line was purchased from Sigma (St. Louis, MO).

[5] = tested on: UM-UC-14 cells (Bladder Cancer, FGFR3(S249C)); test: UM-UC-14 cancer cell line cell viability assay (CellTiter-Glo 2.0); format: cell-based; conditions: UMUC14, 72 hours
Text: as §1, §2

[6] = tested on: KG-1 cells (Acute Myeloid Leukemia, FGFR1OP2-FGFR1 fusion); test: KG-1 cancer cell line cell viability assay (CellTiter-Glo 2.0); format: cell-based; conditions: Homo sapiens, 72 hours
Text: as §1, §2

[7] = target: T1, FGFR2
Method: as §3, §4, §5, §6

[8] = target: FGFR3-BAIAP2L1 Ba/F3 cells
Chain of FGFR3-BAIAP2L1 Ba/F3 cells (P22607 23-806 limits assumed, change not shown): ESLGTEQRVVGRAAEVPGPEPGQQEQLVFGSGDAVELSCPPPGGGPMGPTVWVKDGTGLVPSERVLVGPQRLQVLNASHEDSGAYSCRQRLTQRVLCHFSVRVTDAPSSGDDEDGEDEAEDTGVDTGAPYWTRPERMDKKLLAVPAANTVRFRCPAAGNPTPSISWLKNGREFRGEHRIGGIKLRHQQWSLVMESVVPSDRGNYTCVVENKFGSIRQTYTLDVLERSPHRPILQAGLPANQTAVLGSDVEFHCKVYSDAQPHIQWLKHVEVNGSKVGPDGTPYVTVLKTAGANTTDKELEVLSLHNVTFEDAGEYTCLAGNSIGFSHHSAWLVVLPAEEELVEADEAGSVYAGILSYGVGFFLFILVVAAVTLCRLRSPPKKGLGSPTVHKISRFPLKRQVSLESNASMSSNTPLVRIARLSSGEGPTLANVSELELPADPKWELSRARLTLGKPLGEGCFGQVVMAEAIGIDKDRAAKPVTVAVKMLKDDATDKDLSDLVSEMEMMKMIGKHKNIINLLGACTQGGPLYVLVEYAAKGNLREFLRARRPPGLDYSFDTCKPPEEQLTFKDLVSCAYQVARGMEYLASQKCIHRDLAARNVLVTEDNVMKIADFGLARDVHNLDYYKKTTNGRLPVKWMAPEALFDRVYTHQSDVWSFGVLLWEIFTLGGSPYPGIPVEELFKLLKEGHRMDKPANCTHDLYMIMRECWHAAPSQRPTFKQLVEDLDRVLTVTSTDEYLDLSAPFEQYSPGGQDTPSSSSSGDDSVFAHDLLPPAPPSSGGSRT
Method: Ba/F3 Cell Viability Assays Experimental Purpose: Recombinant kinase fusions are transduced into parental Ba/F3, which becomes dependent upon this constitutive kinase activity for IL3-independent survival. Inhibition of kinase activity leads to cell death, which is monitored using CellTiter-Glo® 2.0 (Promega) which measures intracellular ATP concentration that in turn serves as a marker for viability. […] Cultures were maintained at 37° C. in a humidified atmosphere of 5% CO2 and 95% air. Cells were plated in 96-well clear bottom/white plates (Corning #3903) at 10,000 cells/well in 100 μl of media, incubated overnight. The next day, test compound DMSO stock solutions were made at 10 mM and 2 μM final concentration. Compounds were then added to cells in a 9-dose, 10-fold dilution series starting at 30 μM with an HP 300e Digital Dispenser (each dose was applied in triplicate). DMSO was backfilled to each well up to 301 nL total volume of test compound+DMSO, and a total of 301 nL DMSO was added to a control/no test compound well in triplicate. […] Luminescence was recorded by a Synergy H1 Microplate Reader (Biotek, Winooski, VT). Cells were assessed as a percentage of DMSO only treated control cells. Curves were plotted and IC50 values were calculated using the GraphPad Prism 8 program based on a sigmoidal dose-response equation (4 parameter).

Chain of FGFR3 (P22607 23-806): as the sequence (P22607 23-806 limits assumed, change not shown) above
Chain of FGFR1 (P11362 22-822): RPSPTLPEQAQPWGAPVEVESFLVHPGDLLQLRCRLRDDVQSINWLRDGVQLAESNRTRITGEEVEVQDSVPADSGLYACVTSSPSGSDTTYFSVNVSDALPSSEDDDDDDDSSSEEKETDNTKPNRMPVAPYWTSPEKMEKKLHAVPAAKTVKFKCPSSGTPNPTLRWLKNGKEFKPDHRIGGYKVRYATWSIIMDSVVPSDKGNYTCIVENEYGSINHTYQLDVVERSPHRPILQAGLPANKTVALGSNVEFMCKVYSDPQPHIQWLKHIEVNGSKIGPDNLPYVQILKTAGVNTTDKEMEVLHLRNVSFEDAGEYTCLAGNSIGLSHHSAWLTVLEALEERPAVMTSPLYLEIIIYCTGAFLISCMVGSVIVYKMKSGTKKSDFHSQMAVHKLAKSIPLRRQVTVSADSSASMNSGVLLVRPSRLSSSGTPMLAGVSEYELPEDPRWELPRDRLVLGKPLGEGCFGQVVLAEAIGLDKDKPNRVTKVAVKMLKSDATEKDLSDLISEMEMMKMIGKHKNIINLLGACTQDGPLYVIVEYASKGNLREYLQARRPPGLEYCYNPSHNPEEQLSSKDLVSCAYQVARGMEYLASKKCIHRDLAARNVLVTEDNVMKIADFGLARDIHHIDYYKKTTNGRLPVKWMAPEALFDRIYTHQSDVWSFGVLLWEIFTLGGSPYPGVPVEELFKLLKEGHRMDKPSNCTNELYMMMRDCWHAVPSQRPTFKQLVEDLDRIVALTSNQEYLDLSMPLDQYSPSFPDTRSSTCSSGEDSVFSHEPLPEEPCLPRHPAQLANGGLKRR
T1 sequence (P21802 22-821): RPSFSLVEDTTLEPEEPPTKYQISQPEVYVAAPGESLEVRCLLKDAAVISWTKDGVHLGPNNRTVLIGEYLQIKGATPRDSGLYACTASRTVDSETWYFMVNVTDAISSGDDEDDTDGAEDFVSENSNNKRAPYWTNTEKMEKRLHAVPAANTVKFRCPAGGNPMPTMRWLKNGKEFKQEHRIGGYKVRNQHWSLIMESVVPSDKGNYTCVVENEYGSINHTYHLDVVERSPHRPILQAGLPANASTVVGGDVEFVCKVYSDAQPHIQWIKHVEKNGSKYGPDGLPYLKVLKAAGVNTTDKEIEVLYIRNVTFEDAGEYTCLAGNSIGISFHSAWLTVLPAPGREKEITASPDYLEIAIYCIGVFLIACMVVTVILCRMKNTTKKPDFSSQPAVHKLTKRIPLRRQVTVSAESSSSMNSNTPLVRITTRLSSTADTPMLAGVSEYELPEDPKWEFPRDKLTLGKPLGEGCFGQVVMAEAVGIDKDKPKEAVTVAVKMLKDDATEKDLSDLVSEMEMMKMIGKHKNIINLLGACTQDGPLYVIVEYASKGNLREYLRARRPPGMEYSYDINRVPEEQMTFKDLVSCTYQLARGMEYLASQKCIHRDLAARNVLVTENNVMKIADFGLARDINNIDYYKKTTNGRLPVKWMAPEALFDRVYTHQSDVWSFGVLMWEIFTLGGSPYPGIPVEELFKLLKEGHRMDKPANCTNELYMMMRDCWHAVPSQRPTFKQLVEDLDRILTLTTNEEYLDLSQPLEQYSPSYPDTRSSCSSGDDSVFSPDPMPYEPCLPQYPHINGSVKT

Row | SMILES | IC50 [4] [nM] | IC50 [5] [nM] | IC50 [6] [nM] | also measured
1 | CC(Oc1ccc2[nH]nc(-c3cccc(N=S(C)(C)=O)c3)c2c1)c1c(Cl)cncc1Cl (stereo not shown) [Example 1, [3-[5-[1-(3,5-dichloro-4-pyridyl)ethoxy]-1H-indazol-3-yl]phenyl]imino-dimethyl-oxo-λ^6-sulfane] |  |  |  | pKd [1]: 6.26; Kd [2]: 770 nM; Kd [3]: 76 nM
2 | C[C@@H](Oc1ccc2[nH]nc(-c3ccc(N4CCS(=N)(=O)CC4)cc3)c2c1)c1c(Cl)cncc1Cl [Example 13, (R)-4-(4-(5-(1-(3,5-Dichloropyridin-4-yl)ethoxy)-1H-indazol-3-yl)phenyl)-1-imino-1λ^6-thiomorpholine 1-oxide] | 16 |  |  | 
3 | Cc1ncc(Cl)c([C@@H](C)Oc2ccc3[nH]nc(-c4ccc(N=S(C)(C)=O)nc4)c3c2)c1Cl [Example 30, [5-[5-[(1R)-1-(3,5-dichloro-2-methyl-4-pyridyl)ethoxy]-1H-indazol-3-yl]-2-pyridyl]imino-dimethyl-oxo-λ^6-sulfane] | 38 | 47 |  | 
4 | C[C@@H](Oc1ccc2[nH]nc(NC(=O)c3ccc(N=S(C)(C)=O)nc3)c2c1)c1c(Cl)cncc1Cl [Example 19, (R)—N-(5-(1-(3,5-Dichloropyridin-4-yl)ethoxy)-1H-indazol-3-yl)-6-((dimethyl(oxo)-λ^6-sulfaneylidene)amino)nicotinamide] | 39 |  |  | 
5 | CN=S1(=O)CCN(c2ccc(-c3n[nH]c4ccc(O[C@H](C)c5c(Cl)cncc5Cl)cc34)cn2)CC1 [Example 24, 4-[5-[5-[(1R)-1-(3,5-dichloro-4-pyridyl)ethoxy]-1H-indazol-3-yl]-2-pyridyl]-1-methylimino-1,4-thiazinane 1-oxide] | 8.4 | 12 | 169 | 
6 | C[C@@H](Oc1ccc2[nH]nc(-c3ccc(N4CCS(=N)(=O)CC4)nc3)c2c1)c1c(Cl)cncc1Cl [Example 12, (R)-4-(5-(5-(1-(3,5-Dichloropyridin-4-yl)ethoxy)-1H-indazol-3-yl)pyridin-2-yl)-1-imino-1λ^6-thiomorpholine 1-oxide] | 4.3 | 5.9 | 45 | 
7 | C[C@@H](Oc1ccc2[nH]nc(/C=C/c3ccc(N=S(C)(C)=O)nc3)c2c1)c1c(Cl)cncc1Cl [Example 3] | 20 |  | 0.4 | 
8 | C[C@@H](Oc1ccc2[nH]nc(-c3ccc(S(C)(=N)=O)nc3)c2c1)c1c(Cl)cncc1Cl (stereo partly drawn) [Example 28, [5-[5-[(1R)-1-(3,5-dichloro-4-pyridyl)ethoxy]-1H-indazol-3-yl]-2-pyridyl]-imino-methyl-oxo-λ^6-sulfane] | 28 | 44 |  | 
9 | C[C@@H](Oc1ccc2[nH]nc(-c3ccc(N=S(C)(C)=O)nc3)c2c1)c1c(Cl)cncc1Cl [Example 21, (R)-((5-(5-(1-(3,5-Dichloropyridin-4-yl)ethoxy)-1H-indazol-3-yl)pyridin-2-yl)imino)dimethyl-λ^6-sulfanone] | 11 | 19 | 103 | 
10 | C[C@@H](Oc1ccc2[nH]nc(-c3cnc(N=S(C)(C)=O)c(F)c3)c2c1)c1c(Cl)cncc1Cl [Example 25, [5-[5-[(1R)-1-(3,5-dichloro-4-pyridyl)ethoxy]-1H-indazol-3-yl]-3-fluoro-2-pyridyl]imino-dimethyl-oxo-λ^6-sulfane] | 14 | 19 | 81 | 
11 | C[C@H](Oc1ccc2[nH]nc(-c3ccc(N4CCS(=N)(=O)CC4)cc3)c2c1)c1c(Cl)cncc1Cl [Example 14, (S)-4-(4-(5-(1-(3,5-Dichloropyridin-4-yl)ethoxy)-1H-indazol-3-yl)phenyl)-1-imino-1λ^6-thiomorpholine 1-oxide] | 75 |  |  | 
12 | CC(Oc1ccc2[nH]nc(C(=O)Nc3ccc(S(C)(=N)=O)nc3)c2c1)c1c(Cl)cncc1Cl (stereo not shown) [Example 6, 5-(1-(3,5-Dichloropyridin-4-yl)ethoxy)-N-(6-(S-methylsulfonimidoyl)pyridine-3-yl)-1H-indazole-3-carboxamide] |  |  |  | pKd [7]: 6.92; Kd [2]: 260 nM; Kd [3]: 47 nM
13 | C[C@@H](Oc1ccc2[nH]nc(-c3ccc(N=S4(=O)CCCC4)nc3)c2c1)c1c(Cl)cncc1Cl [Example 32, 1-[[5-[5-[(1R)-1-(3,5-Dichloro-4-pyridyl)ethoxy]-1H-indazol-3-yl]-2-pyridyl]imino]thiolane 1-oxide] |  |  |  | pKd [1]: 7.82; Kd [2]: 14 nM; Kd [3]: 1.9 nM
14 | CC(Oc1ccc2[nH]nc(-c3cccc(S(C)(=N)=O)c3)c2c1)c1c(Cl)cncc1Cl (stereo not shown) [Example 2, (3-(5-(1-(3,5-Dichloropyridin-4-yl)ethoxy)-1H-indazol-3-yl)phenyl)(imino) (methyl)-λ^6-6-sulfanone] |  |  |  | pKd [7]: 6.40; Kd [2]: 1200 nM; Kd [3]: 120 nM
15 | C[C@@H](Oc1ccc2[nH]nc(-c3cnc(N=S(C)(C)=O)nc3)c2c1)c1c(Cl)cncc1Cl [Example 26, [5-[5-[(1R)-1-(3,5-dichloro-4-pyridyl)ethoxy]-1H-indazol-3-yl]pyrimidin-2-yl]imino-dimethyl-oxo-λ^6-sulfane] | 22 | 29 | 123 | pIC50 [8]: 7.74
